This is an account of results in a melting point compilation (Tetko et al.; mined from patent text by program, amines drawn as free bases though some values may be those of a salt).

As for `Cc1cn(C)c2ccc(NC(=O)Nc3cccnc3)cc12`, the melting point was found to be 210 °C.

Turning to `COc1ccc2c(c1)C(N1C(=O)c3ccccc3C1=O)C(=O)N2c1ccc(F)cc1` (stereo not drawn), the melting point is 208 to 210 °C.

In turn, `NNC(=O)c1cnn(-c2ccc(N(CCO)CCO)nn2)c1N` returned a melting point of 217 to 219 °C.

`COC(=O)C1CN(C(C)=O)c2ccccc2CN1S(=O)(=O)c1ccc(OC)cc1` (stereo not drawn) had a melting point of 150 to 155 °C.

Turning to `CC(=O)Oc1cccnc1-n1ccnc1SCc1ccccc1N1CCOCC1`, the melting point lay within 89 to 91 °C.

As to `C=Cc1cc2ccc(-c3ccc(C(=O)OC)cc3)cc2cc1C12CC3CC(CC(C3)C1)C2`, the melting point fell in the range of 221 to 222 °C.

Take `CC(=NO)C(C)(C)NCC(CNC(C)(C)C(C)=NO)CC(O)CC1([N+](=O)[O-])N=CC=N1` (stereo not drawn): the melting point fell in the range of 185 to 187 °C.

Compound `CCOC(=O)c1cnn2c(-c3cccc(C)n3)ccnc12` showed a melting point of 135 to 137 °C.

Turning to `Nc1cccc(-c2nn(Cc3oc4ccccc4c(=O)c3-c3ccccc3)c3ncnc(N)c23)c1`, the melting point was in the range of 157 to 159 °C.

Compound `CN(C)C=NS(=O)(=O)CCC(C)(C)CC#N` registered a melting point of 53 to 54 °C.

As for `O=C(OCc1ccccc1)c1ccc(Br)c(OCc2ccccc2)c1`, the melting point lay in the range of 80.5 to 81.5 °C.

`CS(=O)(=O)Nc1ccc(C=O)cc1Sc1ccc(F)cc1F` came in with a melting point of 109 to 111 °C.

Consider `CCOC(=O)CSc1nnc(S)s1`, for which the melting point was in the range of 67 to 68 °C.

As to `CCCc1c(OCCCCCCc2ccc(C(=O)c3cccc(C(=O)O)c3)cc2CCC(=O)O)ccc2c1OCCC2=O`, the melting point lay in the range of 137 to 139 °C.

`CCCCc1nc2c(N)nc3ccccc3c2n1OC` registered a melting point of 197 to 199 °C.

Regarding `Cc1oc(-c2ccccc2)nc1CCSc1ccc(OC(C)(C)C(=O)O)cc1`, the melting point lay within 104 to 106 °C.

`COc1ccc(C2Nc3ccccc3C(=O)N2c2ccc(F)c(C(F)(F)F)c2)cn1` (stereo not drawn) yielded a melting point of 167 to 168 °C.

`C=CCNC(=O)ON=C1SCC(=O)N1CC` gave a melting point of 103 to 104 °C.

With `Cc1c(-c2ccccc2)nc2cc(Cl)ccc2c1C(=O)N[C@@H](C)C1CCCCC1`, the melting point fell in the range of 204 to 207 °C.

As for `Cc1nc2ccccc2n1Cc1ccc(C(=O)O)c2ccccc12`, the melting point was 292 to 293 °C.

With `O=[N+]([O-])c1ccccc1NOS(=O)(=O)c1ccccc1`, the melting point amounted to 140 °C.

With `CC(C)CNc1sc(-c2cc[nH]n2)c2c1C(=O)CC(C)(C)C2`, the melting point was in the range of 208 to 210 °C.

With `CCN(CC(C)C)c1c(C(O)C#Cc2ccc(C(=O)O)cc2)cccc1C(C)(C)C` (stereo not drawn), the melting point stood at 117 °C.

Compound `O=C(NCCCn1ccnc1)c1ccoc1` had a melting point of 127 to 129 °C.

With `CC(=O)c1ccc(SC(=O)N(C)C)cc1OCC(=O)O`, the melting point lay within 173 to 174 °C.

Compound `CCCCc1nnc(-c2ccc(N)cc2)o1` returned a melting point of 125 °C.

Regarding `CN1CCN(c2ccc([N+](=O)[O-])c(CS(=O)(=O)c3ccccc3)n2)CC1`, the melting point is 170 to 172 °C.

For `COc1ccc(-c2c(Cl)ncn2-c2ccc(S(C)(=O)=O)cc2)cc1`, the melting point was 205 °C.

As for `Fc1cccc(Cl)c1-c1c(Cl)cc(-c2ncccn2)nc1Cl`, the melting point came out at 147 °C.

With `O=C(O)COc1cccc2c1CCc1sc(S(=O)(=O)CC(c3ccccc3)c3ccccc3)nc1-2`, the melting point was 168 to 170 °C.

For `COc1ccccc1NC(=O)Nc1nc(Nc2ccccc2-c2ccccc2)nc(N2CCCCC2C(=O)O)n1` (stereo not drawn), the melting point was 150 to 154 °C.

For the compound `COc1ccc(Sc2ccccc2/C=C/C(=O)NCCCCO)cc1`, the melting point is 134 to 136 °C.

`CCOC(=O)c1cn(Cc2ccccc2)nc1OCc1cccc(OCc2nc(-c3ccccc3)oc2C)c1` had a melting point of 95 to 96 °C.

With `COc1ccc(C2=NN(Cc3ccccc3N)C(=O)SC2)cc1OC`, the melting point is 105 °C.

The compound `Cc1nc(N2CCN(CC(C)C)C2=O)sc1C(N)=O` gave a melting point of 212 to 215 °C.

The compound `O=C1CC2Sc3nc4ccccc4n3C2(c2ccc(Cl)cc2)O1` (stereo not drawn) returned a melting point of 115 to 117 °C.

As for `Cc1c(C)c2ccc(OCCCc3ccccc3)cc2oc1=O`, the melting point amounted to 104 °C.

On to `O=C(CBr)Nc1ccc([N+](=O)[O-])cc1`, for which the melting point fell in the range of 175 to 178 °C.

The compound `O=C(C=Cc1c(Cl)cccc1Cl)c1ccccc1` returned a melting point of 83 °C.

In turn, `COc1ccc2c(c1)-c1ncc(C(=O)O)c(=O)n1CC2` yielded a melting point of 237 to 239 °C.

The compound `O=C1C=C(Br)C(=O)c2ccccc21` came in with a melting point of 130 to 132 °C.

The compound `Cc1c(C)c(N2CCN(c3ccc(C(F)(F)F)cc3)CC2)c(C)c2c1OC(C)(C)C2N1CCCC1` (stereo not drawn) displayed a melting point of 140 to 141 °C.

Compound `O=[N+]([O-])c1ccc(Cl)c(Cl)c1Br` yielded a melting point of 73 °C.

Regarding `c1ccc(-c2c[nH]c([C@@H](Cc3c[nH]c4ccccc34)Nc3ncccn3)n2)cc1`, the melting point is 138 to 140 °C.

Compound `Cc1nnc(SCC(=O)C23CC4CC(CC(C4)C2)C3)n1Cc1ccc(Cl)cc1` showed a melting point of 158 to 159 °C.

The compound `O=C(O)CCCC=C1CCCCCCCCCCC1` gave a melting point of 70 to 72 °C.

`[N-]=[N+]=C(C(=O)CCc1ccc(S(=O)(=O)Cl)cc1)C(=O)CCc1ccc(S(=O)(=O)Cl)cc1`: the melting point fell in the range of 121 to 122 °C.

For `COc1cc(Cc2cnc(N)nc2N)cc(OC)c1CN`, the melting point was 176 to 178 °C.

As for `CSc1ncc2c(=O)[nH]c(-c3ccccc3OCC(C)C)nc2n1`, the melting point fell in the range of 185 to 186 °C.

Regarding `COC(=O)C1=C(CF)NC(C)=C(C(=O)OC(C)C)C1c1ccccc1C(F)(F)F` (stereo not drawn), the melting point lay within 71 to 72 °C.

As for `CN(Cc1cccc2c1CN(C1CCC(=O)NC1=O)C2=O)C(=O)Nc1cccc2ccccc12` (stereo not drawn), the melting point was 292 to 294 °C.

`CCc1cc(CCCc2ccc(CO)c(CO)c2)ccc1O`: the melting point stood at 82 °C.

As to `COC(=O)c1cc(F)ccc1Nc1ccnc2c(Cl)cccc12`, the melting point came to 196 °C.

`CN1CCN(C2=C3CSCC34CC(=CC#N)C=CC4=NC=C2)CC1` (stereo not drawn) registered a melting point of 90 to 92 °C.

Compound `CCCC(=O)C1=C(O)CC(c2c(C)c(C)c3c(c2C)CC(C)(C)O3)CC1=O` (stereo not drawn) gave a melting point of 83 °C.

Regarding `Cc1cc(N)cc(C)c1Oc1ccc(O)c(C(=O)c2ccc(F)cc2)c1`, the melting point is 198 to 202 °C.

For the compound `CNS(=O)(=O)N1CCn2c(c(C(N)=O)c(Cl)c2-c2ccccc2)C1`, the melting point is 193 to 196 °C.

As to `CCN1C(=O)C(C)(C)C(=O)N(C)c2cc(CN(CCn3ccc4oc(C)cc4c3=O)Cc3cccnc3C#N)ccc21`, the melting point fell in the range of 114 to 118 °C.

Take `CC(O)c1nnc(-c2ccc3occ(-c4cccc(OC(F)(F)F)c4)c3c2)o1` (stereo not drawn): the melting point was in the range of 131 to 132 °C.

In turn, `Cc1ccc(-c2[nH]c(-c3c(Cl)cccc3Cl)nc2-c2ccncc2)cc1` yielded a melting point of 295 to 296 °C.

In turn, `CCCCc1cn(CCC)c(=O)n1Cc1ccc(-c2ccccc2-c2nnn[nH]2)nc1` gave a melting point of 164 to 165 °C.

Take `CC(=O)NCc1cc(Br)cc2[nH]c(=O)c(=O)[nH]c12`: the melting point was more than 300 °C.

For the compound `COc1ccc(N(C(=O)CCl)c2c(Cl)cccc2Cl)cc1`, the melting point was in the range of 105 to 106 °C.

For orientation: melting point means the temperature, or range, at which the solid turns liquid.
